Assay results taken from article PMC12104861, “Structural and mechanistic basis for the regulation of the chloroplast signal recognition particle by (p)ppGpp” (Febs Letters, 2025).
Each block holds one molecule with its values, some of them ahead of it.

Columns and labels:
(cp)FtsY‐NG [1] = biological target: T1, (cp)FtsY‐NG (Arabidopsis thaliana, UniProt O80842); assay: isothermal titration calorimetry; format: binding
T1 construct: gene CPFTSY
T1 sequence (O80842 65-366): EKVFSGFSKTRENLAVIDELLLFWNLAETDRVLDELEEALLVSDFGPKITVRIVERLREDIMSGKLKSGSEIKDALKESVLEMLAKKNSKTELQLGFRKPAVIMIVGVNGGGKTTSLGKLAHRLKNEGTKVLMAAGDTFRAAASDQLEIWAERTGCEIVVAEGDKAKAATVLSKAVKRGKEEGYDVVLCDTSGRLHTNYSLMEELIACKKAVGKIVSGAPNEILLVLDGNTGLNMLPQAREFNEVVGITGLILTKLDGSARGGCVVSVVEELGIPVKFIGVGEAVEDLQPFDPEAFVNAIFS
Description: isothermal titration calorimetry on (cp)FtsY‐NG

(cp)SRP54 = biological target: T2, (cp)SRP54 (Arabidopsis thaliana, UniProt P37107); assay: isothermal titration calorimetry; format: binding
T2 construct: gene FFC; residues 79-564 (transit peptide removed), NG and M domains, hexa-histidine tag kept, expressed in E. coli BL21(DE3) Rosetta
T2 sequence (P37107 79-564): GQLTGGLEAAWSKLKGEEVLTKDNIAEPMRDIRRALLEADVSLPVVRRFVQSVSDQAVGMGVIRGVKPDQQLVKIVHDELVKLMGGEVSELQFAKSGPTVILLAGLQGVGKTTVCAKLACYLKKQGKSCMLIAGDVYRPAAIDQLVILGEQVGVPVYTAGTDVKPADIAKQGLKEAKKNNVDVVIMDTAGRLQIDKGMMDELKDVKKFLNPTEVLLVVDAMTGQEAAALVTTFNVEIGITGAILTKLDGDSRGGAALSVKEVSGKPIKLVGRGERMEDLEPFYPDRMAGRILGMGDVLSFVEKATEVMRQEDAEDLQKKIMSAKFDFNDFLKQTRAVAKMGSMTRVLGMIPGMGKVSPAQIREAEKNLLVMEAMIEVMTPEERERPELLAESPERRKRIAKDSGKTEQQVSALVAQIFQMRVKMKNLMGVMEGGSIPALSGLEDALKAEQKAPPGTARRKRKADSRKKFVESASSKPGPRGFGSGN
Description: isothermal titration calorimetry on (cp)SRP54

[2] = biological target: T3, (cp)SRP54:FtsY‐NG complex (Arabidopsis thaliana, UniProt O80842+P37107); assay: HPLC GTP hydrolysis assay; format: biochemical; settings: 10 μM each protein, 500 μM GTP, pH 7.5, 10 mM Mg(OAc)2, 37 °C
T3 construct: gene FFC; GTPase heterodimer mixed from the two His-tagged proteins: SRP54 residues 79-564 and FtsY NG domain residues 65-366
T3 sequence (P37107 79-564): T2 sequence (P37107 79-564)
T3 sequence (O80842 65-366): T1 sequence (O80842 65-366)

[3] = biological target: T3, (cp)SRP54:FtsY‐NG complex; assay: analytical size-exclusion chromatography of complex formation; format: binding; settings: nonhydrolysable GTP analogue promotes the heterodimer; 20 mM HEPES-K pH 7.5, 20 mM MgCl2
(cp)FtsY‐NG [4] = biological target: T1, (cp)FtsY‐NG; assay: X-ray crystal structure, […] Å; settings: Mg2+; canonical guanosine nucleotide-binding site; 100 mM Tris pH 8.5, 25% PEG1000
[5] = biological target: T3, (cp)SRP54:FtsY‐NG complex; assay: HPLC GTP hydrolysis assay; format: biochemical; settings: read-out: residual GTPase activity (% GTP hydrolysed) at 10 mM, 30 min
[6] = biological target: T4, chloroplast signal recognition particle 54 kDa protein, (cp)SRP54 (Arabidopsis thaliana, UniProt P37107 79-564); assay: SEC; analytical SEC, Superdex 200 Increase 10/300 GL; 100 uM of each protein in buffer C (20 mM HEPES-K pH 7.5, 200 mM NaCl, 20 mM KCl, 20 mM MgCl2) with increasing GppNHp; 30 min at room temperature; also 0.5 mM GppNHp with increasing ppGpp or pppGpp, which disrupt the complex; settings: both partners purified
T4 construct: Arabidopsis thaliana (cp)SRP54, UniProt P37107, residues 79-564; the methods give residues 79-564; source: E. coli BL21 (DE3) Rosetta, purified (HisTrap FF, EDTA incubation, SEC Superdex 200)
T4 sequence (looked up): T2 sequence (P37107 79-564)

Molecule: Nc1nc2c(ncn2[C@@H]2O[C@H](COP(=O)(O)OP(=O)(O)O)[C@@H](O)[C@H]2O)c(=O)[nH]1 [GDP]
Kd ((cp)FtsY‐NG [1]): 7.71 ± 0.4 µM | Kd ((cp)SRP54): 23.5 ± 2.29 µM

Molecule: Nc1nc2c(ncn2[C@@H]2O[C@H](COP(=O)(O)OP(=O)(O)OP(=O)(O)O)[C@@H](O)[C@H]2O)c(=O)[nH]1 [GTP]
Kd ((cp)FtsY‐NG [1]): 11.9 ± 2.44 µM | Kd ((cp)SRP54): 51.8 ± 3.54 µM | HPLC GTP hydrolysis assay [2]: significantly enhanced when in complex, hydrolysing nearly all available GTP

Molecule: Nc1nc2c(ncn2[C@@H]2O[C@H](COP(=O)(O)OP(=O)(O)NP(=O)(O)O)[C@@H](O)[C@H]2O)c(=O)[nH]1 [GppNHp]
analytical size-exclusion chromatography of complex formation [3]: visualized the complex between (cp)SRP54 and (cp)FtsY‐NG at increasing concentrations of GppNHp

Second part, led by results:

Kd ((cp)FtsY‐NG [1]): 7.36 ± 1.46 µM | Kd ((cp)SRP54): 32.5 ± 5.38 µM | remaining activity at 10000 µM [5]: ~20%
Molecule: Nc1nc2c(ncn2[C@@H]2O[C@H](COP(=O)(O)OP(=O)(O)O)[C@@H](OP(=O)(O)OP(=O)(O)O)[C@H]2O)c(=O)[nH]1 [ppGpp]
X-ray crystal structure, 1.99 Å ((cp)FtsY‐NG [4]): solve the crystal structure of the truncated form of (cp)FtsY from A. thaliana

Kd ((cp)FtsY‐NG [1]): 27.6 ± 3.64 µM | Kd ((cp)SRP54): 47.8 ± 3.52 µM | remaining activity at 10000 µM [5]: ~20%
Molecule: Nc1nc2c(ncn2[C@@H]2O[C@H](COP(=O)(O)OP(=O)(O)OP(=O)(O)O)[C@@H](OP(=O)(O)OP(=O)(O)O)[C@H]2O)c(=O)[nH]1 [pppGpp]

binding result [6]: binds
B1: NG domain of the chloroplast SRP receptor (cp)FtsY, (cp)FtsY-NG (domain or fragment, Arabidopsis thaliana, UniProt O80842 65-366, looked up)
chain: T1 sequence (O80842 65-366)
notes: source: E. coli BL21 (DE3) Rosetta, purified (HisTrap FF, EDTA incubation, SEC Superdex 200)
